Results as given in patent publication US20080261932A1, “METHODS AND COMPOSITIONS FOR THE PREVENTION AND/OR TREATMENT OF AN EX[…] ASTHMA” (Chiesi Farmaceutici S.p.A., priority 2007, published 2008).

Experiment: Tolerability of high, cumulative doses in asthmatic patients on maintenance treatment with the combination (double blind clinical comparison study)
Conditions: 10 puffs cumulative dose in addition to morning maintenance dose (2 puffs), assessed over 12 hours after dosing, vs placebo / comparator
Method: A study is performed to evaluate the tolerability of high, cumulative doses of the combination formoterol/beclometasone dipropionate or formoterol compared to a placebo when administered in asthmatic patients on regular treatment with the combination at the maximum recommended daily dose (6 microgram of formoterol/100 microgram beclometasone dipropionate, 2 puffs bid.: corresponding to a total daily dose of 24 microgram of formoterol and of 400 microgram of beclometasone dipropionate). The study is a double blind clinical comparison study of ten puffs of the pressurized metered dose inhaler solution formulation of the combination of Example 1 (formoterol 6 microgram+beclometasone dipropionate 100 microgram) or formoterol (6 microgram) or placebo during the maintenance treatment of asthma with 2 puffs bid. of the combination formoterol/beclometasone dipropionate of Example 1.
Cumulative doses (10 puffs) are administered on 3 separated days in addition to the morning dose maintenance (2 puffs). The primary endpoint is serum potassium, assessed over a 12 hours period after the cumulative doses.

For `COc1ccc(CC(C)NCC(O)c2ccc(O)c(NC=O)c2)cc1` (racemic) [Formoterol, (±) N-[2-hydroxy-5-(1-hydroxy-2-((2-(4-methoxyphenyl)-1-methylethyl)amino)ethyl)phenyl]formamide], the serum potassium level was “significantly greater decrease in serum potassium level than the combination or placebo” and the serum potassium level (listed as formoterol) was “significantly greater decrease in serum potassium level than the either the combination or the placebo”.
